According to US9549918B2, “Stabilized tacrolimus composition” (priority 2008, dated 2017):

Test: Ability of stabilizing agents to dissolve in the melted PEG/Poloxamer vehicle
Assay type: physicochemical
Conditions: 0.5% w/w of substance mixed with PEG/Poloxamer at 80° C.

EDTA, NH4, H2O
Physical state in vehicle: Not dissolved

N.N.O=C(O)CC(O)(CC(=O)O)C(=O)O [Citric acid, (NH4)2]
Physical state in vehicle: Not dissolved

O=C(O)C(=O)O [Oxalic acid, 2H2O]
Physical state in vehicle: Dissolved
Physical state in vehicle (listed as oxalic acid): dissolved

O=C([O-])CC(O)(CC(=O)[O-])C(=O)[O-].[Na+].[Na+].[Na+] [Citric acid, Na3]
Physical state in vehicle: Not dissolved

O.O=C([O-])C(O)C(O)C(=O)[O-].O=C([O-])C(O)C(O)C(=O)[O-].[K+].[K+].[K+].[K+] (stereo not shown) [Tartaric acid, K2, ½H2O]
Physical state in vehicle: Not dissolved

N.N.O=C(O)C(O)C(O)C(=O)O (stereo not shown) [Tartaric acid, (NH4)2]
Physical state in vehicle: Not dissolved

O=C([O-])CC(O)(CC(=O)O)C(=O)O.[Na+] [Citric acid, Na]
Physical state in vehicle: Not dissolved

N.N.N.O=C(O)CC(O)(CC(=O)O)C(=O)O [Citric acid, (NH4)3]
Physical state in vehicle: Not dissolved

O.O=C([O-])CN(CCN(CC(=O)[O-])CC(=O)[O-])CCN(CC(=O)[O-])CC(=O)[O-].[Ca+2].[Na+].[Na+].[Na+] [Triethyleneamine pentaacetic acid, Ca, Na3, H2O]
Physical state in vehicle: Not dissolved

O=C(O)[C@H]1OC(O)[C@H](O)[C@@H](O)[C@@H]1O (stereo partly drawn) [D-Glucoronic acid]
Physical state in vehicle: Not dissolved

O.O.O=C([O-])CN(CCN(CC(=O)[O-])CC(=O)[O-])CC(=O)[O-].[Na+].[Na+].[Na+].[Na+] [EDTA, Na4, 2H2O]
Physical state in vehicle: Not dissolved

O=C([O-])C(O)C(O)C(=O)O.[K+] (stereo not shown) [Tartaric acid, K]
Physical state in vehicle: Not dissolved

O=C([O-])CN(CCN(CC(=O)[O-])CC(=O)[O-])CC(=O)[O-].[Ca+2].[Na+].[Na+] [EDTA, Ca, Na2]
Physical state in vehicle: Not dissolved

O=C(O)CC(O)(CC(=O)O)C(=O)O [Citric acid, H2O]
Physical state in vehicle: Dissolved
Physical state in vehicle (listed as citric acid): dissolved

O=C([O-])CN(CCN(CC(=O)[O-])CC(=O)O)CC(=O)[O-].[Na+].[Na+].[Na+] [EDTA, Na3]
Physical state in vehicle: Not dissolved

Oc1cccc2cccnc12 [8-hydroxychinoline 0.005%, ½SO4, ½H2O, 8-hydroxychinoline]
Physical state in vehicle: Not dissolved

O=C(O)CN(CCN(CC(=O)O)CC(=O)O)CC(=O)O [Ethylene di-amine tetra acetic acid]
Physical state in vehicle: Not dissolved

O=C(O)C(O)C(O)C(=O)O (stereo not shown) [Tartaric acid]
Physical state in vehicle: Dissolved
Physical state in vehicle (listed as tartaric acid): dissolved

O=C([O-])C(=O)[O-].[Ca+2] [Oxalic acid, Ca, xH2O]
Physical state in vehicle: Not dissolved
